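Grown in 96-well plates, cells were treated for 48 hours with each compound at five concentrations. Insufficient inhibition: endpoint recorded as highest concentration tested. GI50 marks 50% less growth.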 Calls of active or inactive are those of the source. No stated cut-off is given here; in the data, active = GI50 up to about 1.1 µM and inactive = higher.
Assays:
Test in all cases: DTP human tumour cell line panel, 48 h
[1] = tested on: HCC 2998
[2] = tested on: HCT-116
[3] = tested on: HL-60
[4] = tested on: HOP-62
[5] = tested on: HOP-92
[6] = tested on: HT-29
[7] = tested on: KM12
[8] = tested on: MCF7
[9] = tested on: MDA-MB-231
[10] = tested on: MOLT-4
[11] = tested on: NCI-H522
[12] = tested on: NCI/ADR-RES
[13] = tested on: OVCAR-5
[14] = tested on: PC-3
[15] = tested on: RXF 393
[16] = tested on: SF-268
[17] = tested on: SK-MEL-28
[18] = tested on: SN12C
[19] = tested on: SW-620
[20] = tested on: Malme-3M

| SMILES | GI50 [1] | GI50 [2] | GI50 [3] | GI50 [4] | GI50 [5] | GI50 [6] | GI50 [7] | GI50 [8] | GI50 [9] | GI50 [10] | GI50 [11] | GI50 [12] | GI50 [13] | GI50 [14] | GI50 [15] | GI50 [16] | GI50 [17] | GI50 [18] | GI50 [19] | GI50 [20] |
| --- | --- | --- | --- | --- | --- | --- | --- | --- | --- | --- | --- | --- | --- | --- | --- | --- | --- | --- | --- | --- |
| C/C=C1/CN2CCc3c([nH]c4ccccc34)[C@@H]2C[C@@H]1Cc1nccc2c1[nH]c1cc(O)ccc12 | 1.42 µM (inactive) | 1.67 µM (inactive) | 2.45 µM (inactive) | 1.98 µM (inactive) | 6.38 µM (inactive) | 1.87 µM (inactive) | 1.95 µM (inactive) | 2.62 µM (inactive) | 1.64 µM (inactive) | 2.58 µM (inactive) | 1.89 µM (inactive) | 1.72 µM (inactive) | 2.93 µM (inactive) | 2.25 µM (inactive) | 2.24 µM (inactive) | 1.77 µM (inactive) | 1.92 µM (inactive) | 1.66 µM (inactive) | 2.82 µM (inactive) | – |
| CN(C)c1ccc2nc(CC(O)(C(F)(F)F)C(F)(F)F)ccc2c1 | > 10 µM (inactive) | > 10 µM (inactive) | – | > 10 µM (inactive) | > 10 µM (inactive) | > 10 µM (inactive) | > 10 µM (inactive) | > 10 µM (inactive) | > 10 µM (inactive) | > 10 µM (inactive) | > 10 µM (inactive) | > 10 µM (inactive) | > 10 µM (inactive) | > 10 µM (inactive) | > 10 µM (inactive) | > 10 µM (inactive) | > 10 µM (inactive) | > 10 µM (inactive) | > 10 µM (inactive) | > 10 µM (inactive) |
| Clc1ccc(Cc2nc3cc(CCN4CCN(c5ccccc5)CC4)ccc3[nH]2)cc1 | – | 12 µM (inactive) | 12.6 µM (inactive) | 15.4 µM (inactive) | 21 µM (inactive) | 5.58 µM (inactive) | 11.3 µM (inactive) | 16 µM (inactive) | 13 µM (inactive) | 6.62 µM (inactive) | 14.1 µM (inactive) | 19.1 µM (inactive) | 26.1 µM (inactive) | 18.6 µM (inactive) | 5.24 µM (inactive) | 25.5 µM (inactive) | 19.1 µM (inactive) | 16 µM (inactive) | > 100 µM (inactive) | 15.7 µM (inactive) |
| O=C(/C=C/c1cc(F)ccc1F)OCCc1ccccc1 | > 100 µM (inactive) | > 100 µM (inactive) | 16.4 µM (inactive) | > 100 µM (inactive) | 40.6 µM (inactive) | 43 µM (inactive) | 96.2 µM (inactive) | 42.2 µM (inactive) | 63 µM (inactive) | 49.3 µM (inactive) | > 100 µM (inactive) | > 100 µM (inactive) | > 100 µM (inactive) | 49.4 µM (inactive) | 91.6 µM (inactive) | > 100 µM (inactive) | > 100 µM (inactive) | – | > 100 µM (inactive) | > 100 µM (inactive) |
| Cc1ccccc1NC(=O)Cc1csc(N/N=C2\C(=O)Nc3ccccc32)n1 | – | 43.7 µM (inactive) | 22.3 µM (inactive) | – | 30.2 µM (inactive) | 55.6 µM (inactive) | 33.3 µM (inactive) | 50 µM (inactive) | 29.7 µM (inactive) | 29.7 µM (inactive) | 17.7 µM (inactive) | 29.7 µM (inactive) | 41.7 µM (inactive) | 18.6 µM (inactive) | 28.8 µM (inactive) | 39.4 µM (inactive) | 1 µM (active) | 61.2 µM (inactive) | 1 µM (active) | 32.4 µM (inactive) |
| O=C(O)c1cccc(S(=O)(=O)NCCO)c1 | – | > 100 µM (inactive) | > 100 µM (inactive) | > 100 µM (inactive) | > 100 µM (inactive) | > 100 µM (inactive) | > 100 µM (inactive) | > 100 µM (inactive) | > 100 µM (inactive) | > 100 µM (inactive) | > 100 µM (inactive) | > 100 µM (inactive) | > 100 µM (inactive) | > 100 µM (inactive) | > 100 µM (inactive) | > 100 µM (inactive) | > 100 µM (inactive) | > 100 µM (inactive) | > 100 µM (inactive) | > 100 µM (inactive) |

Source: ChEMBL document CHEMBL1201862, “PubChem BioAssay data set” (2004)
